The values that follow are results of earlier work, collected in patent US20050100563A1, “Antifungal compositions and methods of treatment therewith” (priority 2001, published 2005).

The conditions of this data set: in water; stated in parentheses, no measurement described.

For the compound `[O]=[Sn]([F])[F]` [stannic oxyfluoride], the solubility entry is “approximately 0.3%”.
